Key:
[1] = system: SNU-16 (FGFR2); experiment: Cellular proliferation assay (CellTiter-Glo), SNU-16; assay type: cell-based; settings: Homo sapiens, SNU-16 cells, 72 hours
Experimental: (§1) Compounds were tested proliferation assay in SNU-16, KATO-III, SNU-1, AGS, AN3CA, MFE280, MKN45, KLE, RT112-84, RT4, T24, UM-UC-3, KMS11, OPM-2, RAPI8226, U266, SUM 52PE, MCF7 and BaF3 cell lines. Test compounds were prepared in 10 mM DMSO stock solutions, add […] 1000× stock solution to 98 μL growth medium to get […] final concentration, 3-fold 9-points dilution was performed. Cell lines suspension of 95 μL were seeded into 96-well plate and incubated at 37° C. for 24 hours, add 5 μL 20× compounds solutions to 96-well plate according to the plate map with Echo550 liquid handler. Final DMSO concentration in each well is 0.1%, cell lines were incubated at 37° C. for 72 hours, then equilibrate the assay plate to room temperature before measurement, add 50 μL of CellTiter-Glo® Reagent into each well, mix contents for 2 minutes on an orbital shaker to induce cell lysis and incubate at room temperature for 10 minutes to stabilize luminescent signal, Chemiluminescence was then read on an EnVision reader. Inhibition Rate (Inh. %) was calculated relative to vehicle (DMSO) treated control wells using following formula: Inhibition Rate (Inh %)=100−(RLU compound−RLU blank)/(RLU control−RLU blank)*100%, Data were analyzed using Graphpad Prism 7.0, fitting to a 4-parameter equation to generate concentration response curves.

[2] = molecular target: T1, FGFR3 (Homo sapiens, UniProt P22607); experiment: FGFR biochemical assay (LanthaScreen TR-FRET), FGFR3; settings: ATP 35 μM, FGFR3 0.1 nM
T1 construct: purchased Carna
Experimental: (§2) The following procedure was used to test the compounds described herein: • Dilute the test compounds to 100× of the final desired highest concentration in reaction by 100% DMSO. • Perform a serial dilution in a 384-well source plate by transferring 15 μL to 30 μL of […] DMSO in the next well and so forth for a total of 10 concentrations. • Dispense 100 nL of compound solution each well from the source plate to a 384-well assay plate in duplicates by Echo (Labcyte). • Prepare a solution of 2× FGFR enzyme (Carna) in kinase buffer (50 mM HEPES, pH 7.5, 10 mM MgCl2, 4 mM DTT, 0.01% Tween-20 and 0.01% BSA). The final concentration of FGFR1/2/3/4 is 0.01. 0.01, 0.1 and 1 nM, respectively. • Add 5 μL of kinase solution to each well of the compound-containing assay plate, except for low control wells without enzyme (add 5 μL of 1× kinase buffer instead). • Shake the plate and incubate at room temperature for 10 minutes (for Example 1) (or 60 min for the remaining Examples in Table 4). • Prepare the substrate solution of Fluorescein-Poly GT (Invitrogen) and ATP (Sigma) in 1× kinase reaction buffer at 2-fold of the final concentration of each reagent desired in the assay (final concentration of ATP is 28, 22, 35 and 238 μM for FGFR1/2/3/4 respectively; Fluorescein-Poly GT is fixed at 20 nM). • Add 5 μL of substrate solution to each well of the assay plate to initiate the kinase reaction. • Shake the plate shortly and incubate at room temperature for 30 minutes. • Prepare 2× detection solution in Antibody Dilution Buffer (LanthaScreen® Tb—PY20 Antibody Kit, Invitrogen). • Add 10 μL of detection solution to each well of the assay plate to stop the reaction. • Mix briefly with centrifuge and incubate at room temperature for 60 minutes before reading on a microplate reader. • Collect data on Envision with excitation at 340 nm and emission at 520 nm and 495 nm. • Calculate Ratio of RFU 520 nm/RFU 495 nm. Convert Ratio values to percent inhibition values (Percent inhibition=(max−sample Ratio)/(max−min)*100) where “min” means the Ratio of no enzyme control and “max” means the Ratio of DMSO control. • Data are analyzed and curve fitting is performed by XLFit Excel add-in version 5.4.0.8. The IC50 calculation equation is: Y=Bottom+(Top−Bottom)/(1+(IC50/X)^HillSlope.

[3] = molecular target: T2, FGFR1 (Homo sapiens, UniProt P11362); experiment: FGFR biochemical assay (LanthaScreen TR-FRET), FGFR1; settings: ATP 28 μM, FGFR1 0.01 nM
T2 construct: purchased Carna
Experimental: as §2

[4] = molecular target: T3, FGFR2 (Homo sapiens, UniProt P21802); experiment: FGFR biochemical assay (LanthaScreen TR-FRET), FGFR2; settings: ATP 22 μM, FGFR2 0.01 nM
T3 construct: purchased Carna
Experimental: as §2

[5] = system: RT4 (FGFR3); experiment: Cellular proliferation assay (CellTiter-Glo), RT4; assay type: cell-based; settings: Homo sapiens, RT-4, RT4 cells, 72 hours
Experimental: as §1

[6] = enzyme pre-incubation 10 minutes (for Example 1)

T2 sequence (P11362 22-822): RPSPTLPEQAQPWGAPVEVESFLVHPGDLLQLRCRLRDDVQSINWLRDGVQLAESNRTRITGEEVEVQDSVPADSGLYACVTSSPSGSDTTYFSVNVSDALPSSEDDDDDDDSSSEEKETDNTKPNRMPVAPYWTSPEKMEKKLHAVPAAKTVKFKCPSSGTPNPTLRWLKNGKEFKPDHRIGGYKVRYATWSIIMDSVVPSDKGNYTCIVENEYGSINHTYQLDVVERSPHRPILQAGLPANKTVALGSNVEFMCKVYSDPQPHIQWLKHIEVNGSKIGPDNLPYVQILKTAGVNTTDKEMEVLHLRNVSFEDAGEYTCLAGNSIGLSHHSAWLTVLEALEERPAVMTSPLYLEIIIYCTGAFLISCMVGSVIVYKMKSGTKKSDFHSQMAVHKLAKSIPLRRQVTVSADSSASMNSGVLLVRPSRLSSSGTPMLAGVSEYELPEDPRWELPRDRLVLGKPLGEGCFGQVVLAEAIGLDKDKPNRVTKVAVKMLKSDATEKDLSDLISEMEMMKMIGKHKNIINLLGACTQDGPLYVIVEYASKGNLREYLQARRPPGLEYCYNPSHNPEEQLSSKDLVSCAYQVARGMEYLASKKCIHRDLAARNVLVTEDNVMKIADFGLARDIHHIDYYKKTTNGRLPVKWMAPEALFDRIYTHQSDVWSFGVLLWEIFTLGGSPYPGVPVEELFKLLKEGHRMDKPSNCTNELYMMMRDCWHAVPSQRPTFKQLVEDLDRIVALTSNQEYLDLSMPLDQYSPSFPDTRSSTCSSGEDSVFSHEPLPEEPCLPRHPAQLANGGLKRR
T1 sequence (P22607 23-806): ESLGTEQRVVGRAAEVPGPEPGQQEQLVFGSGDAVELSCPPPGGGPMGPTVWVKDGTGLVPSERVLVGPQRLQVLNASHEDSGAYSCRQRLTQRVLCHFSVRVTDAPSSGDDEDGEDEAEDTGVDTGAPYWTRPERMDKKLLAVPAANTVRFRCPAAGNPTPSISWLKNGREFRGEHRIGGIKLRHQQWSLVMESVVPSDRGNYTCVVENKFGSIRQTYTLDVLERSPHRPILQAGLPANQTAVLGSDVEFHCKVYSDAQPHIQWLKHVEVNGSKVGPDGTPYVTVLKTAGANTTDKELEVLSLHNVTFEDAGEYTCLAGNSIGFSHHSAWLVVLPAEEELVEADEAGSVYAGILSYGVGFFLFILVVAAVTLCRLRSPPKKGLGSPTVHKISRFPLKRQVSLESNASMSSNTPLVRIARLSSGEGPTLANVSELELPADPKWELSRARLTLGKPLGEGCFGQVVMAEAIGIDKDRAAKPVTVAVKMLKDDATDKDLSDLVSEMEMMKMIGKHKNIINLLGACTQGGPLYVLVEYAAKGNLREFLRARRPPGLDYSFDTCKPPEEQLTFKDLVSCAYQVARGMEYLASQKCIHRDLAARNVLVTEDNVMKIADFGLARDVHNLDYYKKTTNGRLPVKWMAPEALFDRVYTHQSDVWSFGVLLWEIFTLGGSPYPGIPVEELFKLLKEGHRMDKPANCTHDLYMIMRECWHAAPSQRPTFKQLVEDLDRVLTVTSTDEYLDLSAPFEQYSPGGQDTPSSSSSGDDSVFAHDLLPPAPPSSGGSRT
T3 sequence (P21802 22-821): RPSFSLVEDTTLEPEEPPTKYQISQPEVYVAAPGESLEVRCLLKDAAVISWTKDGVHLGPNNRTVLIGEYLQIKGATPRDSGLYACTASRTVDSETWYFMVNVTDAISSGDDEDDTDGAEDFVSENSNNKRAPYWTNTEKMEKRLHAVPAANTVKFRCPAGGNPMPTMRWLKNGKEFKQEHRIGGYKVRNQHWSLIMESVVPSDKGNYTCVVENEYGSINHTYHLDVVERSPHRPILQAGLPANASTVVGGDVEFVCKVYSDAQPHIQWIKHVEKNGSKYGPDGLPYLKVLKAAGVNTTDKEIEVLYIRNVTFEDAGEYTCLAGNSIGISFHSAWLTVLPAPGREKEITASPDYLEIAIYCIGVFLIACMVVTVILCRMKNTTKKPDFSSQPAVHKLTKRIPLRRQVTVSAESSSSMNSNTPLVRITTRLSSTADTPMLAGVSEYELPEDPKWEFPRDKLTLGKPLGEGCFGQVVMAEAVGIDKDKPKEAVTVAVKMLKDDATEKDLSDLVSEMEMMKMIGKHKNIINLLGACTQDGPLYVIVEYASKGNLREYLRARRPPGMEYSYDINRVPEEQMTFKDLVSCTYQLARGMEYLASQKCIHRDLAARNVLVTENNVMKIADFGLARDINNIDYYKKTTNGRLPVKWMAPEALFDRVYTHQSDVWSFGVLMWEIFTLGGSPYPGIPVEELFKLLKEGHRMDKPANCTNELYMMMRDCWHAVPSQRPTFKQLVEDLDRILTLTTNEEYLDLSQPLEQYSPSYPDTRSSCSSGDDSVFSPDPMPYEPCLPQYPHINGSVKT

SMILES	IC50 [1] [nM]	IC50 ([2]; enzyme pre-incubation 60 min) [nM]	IC50 ([3]; enzyme pre-incubation 60 min) [nM]	IC50 ([4]; enzyme pre-incubation 60 min) [nM]	IC50 [5] [nM]	IC50 [2, 6] [nM]	IC50 [3, 6] [nM]	IC50 [4, 6] [nM]
Cc1cnc2c(-c3ccc(NC(=O)/C=C/CN4CC(O)C4)cc3)c(-c3ccc(Oc4nccc(C)n4)c(F)c3)c(C(N)=O)n2c1 [Example 23]	10 to 100	< 10	10 to 100	< 10	100 to 1000	–	–	–
C=C(F)C(=O)Nc1ccc(-c2c(-c3ccc(Oc4nccc(C)n4)cc3Cl)c(C(N)=O)n3cc(C)cnc23)cc1 [Example 15]	–	100 to 1000	> 1000	100 to 1000	–	–	–	–
C=C(C)C(=O)Nc1ccc(-c2c(-c3ccc(Oc4nccc(C)n4)c(F)c3)c(C(N)=O)n3cc(C)cnc23)c(F)c1 [Example 19]	–	100 to 1000	> 1000	10 to 100	–	–	–	–
CC#CC(=O)Nc1ccc(-c2c(-c3ccc(Oc4nccc(C)n4)c(F)c3)c(C(N)=O)n3cc(C)cnc23)cc1 [Example 13]	< 10	10 to 100	100 to 1000	< 10	10 to 100	–	–	–
C=C(F)C(=O)Nc1ccc(-c2c(-c3ccc(Oc4nccc(C)n4)c(F)c3)c(C(N)=O)n3cc(C4CC4)cnc23)cc1 [Example 5]	10 to 100	10 to 100	100 to 1000	10 to 100	10 to 100	–	–	–
C=C(F)C(=O)Nc1ccc(-c2c(-c3ccc(Oc4nccc(C)n4)c(F)c3)c(C(N)=O)n3cccnc23)cc1 [Example 11]	–	10 to 100	100 to 1000	< 10	–	–	–	–
C=C(F)C(=O)Nc1ccc(-c2c(-c3ccc(Oc4nccc(C)n4)c(F)c3)c(C(N)=O)n3ccc(C)nc23)cc1 [Example 4]	10 to 100	100 to 1000	100 to 1000	10 to 100	100 to 1000	–	–	–
Cc1cnc2c(-c3ccc(NC(=O)/C=C/CN(C)C)cc3)c(-c3ccc(Oc4nccc(C)n4)c(F)c3)c(C(N)=O)n2c1 [Example 14]	< 10	10 to 100	100 to 1000	< 10	10 to 100	–	–	–
C=C(F)C(=O)Nc1ccc(-c2c(-c3ccc(Oc4nccc(C)n4)c(F)c3)c(C(N)=O)n3cc(C)cnc23)c(F)c1 [Example 18]	–	< 10	10 to 100	< 10	–	–	–	–
Cc1cnc2c(-c3ccc(NC(=O)/C(F)=C/CN(C)C)cc3)c(-c3ccc(Oc4nccc(C)n4)c(F)c3)c(C(N)=O)n2c1 [Example 21]	–	10 to 100	> 1000	10 to 100	–	–	–	–
C=C(F)C(=O)Nc1ccc(-c2c(-c3ccc(Oc4nccc(C)n4)c(F)c3)c(C(N)=O)n3cc(C#CC)cnc23)cc1 [Example 10]	–	100 to 1000	100 to 1000	10 to 100	–	–	–	–
C=C(F)C(=O)Nc1ccc(-c2c(-c3ccc(Oc4nccc(C)n4)c(F)c3)c(C(N)=O)n3cc(C)cnc23)cc1 [Example 2]	< 10	10 to 100	100 to 1000	< 10	10 to 100	–	–	–
C=C(F)C(=O)Nc1ccc(-c2c(-c3ccc(Oc4nccc(C)n4)c(F)c3)c(C(N)=O)n3cc(Cl)cnc23)cc1 [Example 16]	–	100 to 1000	100 to 1000	10 to 100	–	–	–	–
C=C(F)C(=O)Nc1ccc(-c2c(-c3ccc(Oc4nccc(C)n4)cc3)c(C(N)=O)n3cc(N4CCN(C)CC4)cnc23)cc1 [Example 6]	–	10 to 100	100 to 1000	< 10	–	–	–	–
C=C(F)C(=O)Nc1ccc(-c2c(-c3ccc(Oc4nccc(C)n4)c(F)c3)c(C(N)=O)n3cc(C)ncc23)cc1 [Example 3]	< 10	10 to 100	100 to 1000	< 10	10 to 100	–	–	–
C=CC(=O)Nc1ccc(-c2c(-c3ccc(Oc4cccc(C)n4)cc3)c(C(N)=O)n3cccnc23)cc1 [Example 1]	–	–	–	–	–	10 to 100	100 to 1000	< 10
C=C(F)C(=O)Nc1ccc(-c2c(-c3ccc(Oc4nccc(C)n4)c(F)c3)c(C(N)=O)n3ccccc23)cc1 [Example 12]	–	10 to 100	100 to 1000	< 10	–	–	–	–
C=C(F)C(=O)Nc1ccc(-c2c(-c3ccc(Oc4nccc(C)n4)c(F)c3)c(C(N)=O)n3cc(-c4cnn(C)c4)cnc23)cc1 [Example 9]	–	100 to 1000	100 to 1000	< 10	–	–	–	–
C=C(F)C(=O)N1CCc2cc(-c3c(-c4ccc(Oc5nccc(C)n5)c(F)c4)c(C(N)=O)n4cc(C)cnc34)ccc21 [Example 17]	< 10	< 10	100 to 1000	< 10	10 to 100	–	–	–
Cc1cnc2c(-c3ccc(NC(=O)/C=C/CNC4COC4)cc3)c(-c3ccc(Oc4nccc(C)n4)c(F)c3)c(C(N)=O)n2c1 [Example 22]	< 10	10 to 100	100 to 1000	< 10	10 to 100	–	–	–
C=C(F)C(=O)Nc1ccc(-c2c(-c3ccc(Oc4nccc(C)n4)cc3)c(C(N)=O)n3cc(C)cnc23)cc1 [Example 20]	< 10	10 to 100	100 to 1000	< 10	10 to 100	–	–	–
C=C(F)C(=O)Nc1ccc(-c2c(-c3ccc(Oc4nccc(C)n4)c(F)c3)c(C(N)=O)n3cc(N4CCOCC4)cnc23)cc1 [Example 8]	< 10	10 to 100	> 1000	< 10	10 to 100	–	–	–
C=C(F)C(=O)Nc1ccc(-c2c(-c3ccc(Oc4nccc(C)n4)c(F)c3)c(C(N)=O)n3cc(CC)cnc23)cc1 [Example 7]	–	100 to 1000	> 1000	< 10	10 to 100	–	–	–
